Each structure is given as a SMILES string. ≈ marks a conversion by molar mass, not a printed value.

Data on four compounds can be found in patent publication EP1840211A1, “Pyranosone dehydratase from phanerochaete chrysosporium” (DANISCO A/S, priority 2001, dated 2003).

In assay [1] the test system is Aphanomyces cochlioides. The assay can be described thus: Agar plate inhibition zone test (PDA medium). To be noted: judged after 3-4 days of growth, read-out: minimum inhibition concentration (mic). In kind it is cell-based. On the procedure: (§1) A circular plug (diameter 10 mm) of fresh mycelium was placed at the centre on a petri-dish (diameter 9 cm) containing PDA medium. (PDA= Potato dextrose agar Difco no. 213400). Wells with a diameter of 5 mm were cut along the periphery of the agar plate. In each well were placed 50 µl of a test solution. Alternatively, 20 µl of each test solution were placed directly on the agar along the periphery of the plate. Also, 50µl of each test solution were placed directly on top of the fungal mycelium plug.
(§2) The agar plates were placed at room temperature in daylight, but protected from direct sunlight.
(§3) The reaction (inhibition zones) of the fungi to the test substance was judged as follows: Rhizoctonia solani: after 2-3 days of growth Pythium ultimum: after 1-2 days of growth Aphanomyces cochlioides: after 3-4 days of growth Cercospora beticola after 3-4 weeks of growth

Another assay concerns Cercospora beticola. The assay can be described thus: Agar plate inhibition zone test (PDA medium). In kind it is cell-based. To be noted: judged after 3-4 weeks of growth, read-out: minimum inhibition concentration (mic). On the procedure: as §1, §2, §3
Another assay deals with Pythium ultimum. Nature of the assay: Agar plate inhibition zone test (PDA medium). In kind it is cell-based. To be noted: Globisporangium ultimum; judged after 1-2 days of growth; read-out: minimum inhibition concentration (mic). On the procedure: as §1, §2, §3
The test system of a further assay is Rhizoctonia solani. The assay can be described thus: Agar plate inhibition zone test (PDA medium). To be noted: judged after 2-3 days of growth, read-out: minimum inhibition concentration (mic). In kind it is cell-based. On the procedure: as §1, §2, §3
Assay [2] deals with Aphanomyces cochlioides. The assay can be described thus: Screening for growth inhibition on agar-plates (Example 4). In kind it is cell-based. To be noted: very low concentrations; in wells on PDA-agar plates, 3-5 days. Here is the method:
The effect of microthecin on the plant pathogenic fungi Pythium ultimum, Rhizoctonia solani and Aphanomyces cochlioides in vitro was investigated by screening for growth inhibition of the pathogens on agar-plates (Figures 6, 7, 8).
(§4) In each case, microthecin was dissolved in water and placed in wells in the periphery. An agar block containing the pathogen was placed in the centre. The pathogens were allowed to grow out on the PDA-agar plates for 3-5 days.

Another assay deals with B. Pumilus DS96.734. Nature of the assay: Similar growth tests with other microorganisms (Example 4). In kind it is cell-based. On the procedure: as §4
For another assay, the system named is B. megaterium DS98.124. The description is as above. In kind it is cell-based. Here is the method:
as §4

The test system of another assay is Cercospora. The description is as above. In kind it is cell-based. On the procedure: as §4
Another assay relates to P. fluorescens DS96.578. The description is as above. In kind it is cell-based. Here is the method: as §4
For another assay, the system named is P. mendocina DS98.124. Described as above. In kind it is cell-based. Here is the method:
as §4

The subject of another assay is sugar beet seeds. Nature of the assay: Laboratory germination of pelleted sugar beet seeds. In kind it is in vivo. To be noted: result in words.
Another assay deals with Aphanomyces. The assay can be described thus: Field emergence trial (Trial FEHCP034 Aphanomyces). In kind it is in vivo, sugar beet. As to conditions: pellets containing the substance, result in words. An excerpt:
Based on these findings, the efficiency of microthecin was further investigated in a field emergence trial. The trial was sown relatively late giving it a higher chance for presence of the pathogen Aphanomyces in the trial field.
Seeds were pelleted with standard P1 pelleting mass with (1,2) or without (7,8)Thiram.
Inner coating: 0,3gai/U microthecin as a 0,5% solution in water or 14,7gai/U Hymexazol. 60gai/U Imidacloprid. Standard metallic green seed cover film.
The following combinations were included in the trial: R F0 Without fungicides R FT With Thiram (in pellet) R FH With Hymexazol R FM With Microthecin R P1 STD With Thiram (in pellet) + Hymexazol R FTM With Thiram (in pellet) + Microthecin Trial place Bukkehave, DK. (4 reps, 200 seeds/plot) Trial sown 21.05.2002 1. Count 28.05.2002 (speed) 2. Count 29.05.2002 (speed) 3. Count 24.06.2002 (final)

For assay [3], the target named is T1, pyranosone dehydratase (PD) (Phanerodontia chrysosporium, UniProt P84193).
T1 construct: from tissue; host or cells: Phanerochaete chrysosporium (enzyme purified from the fungus' cell-free extract)
T1 sequence (P84193 8-900 limits assumed): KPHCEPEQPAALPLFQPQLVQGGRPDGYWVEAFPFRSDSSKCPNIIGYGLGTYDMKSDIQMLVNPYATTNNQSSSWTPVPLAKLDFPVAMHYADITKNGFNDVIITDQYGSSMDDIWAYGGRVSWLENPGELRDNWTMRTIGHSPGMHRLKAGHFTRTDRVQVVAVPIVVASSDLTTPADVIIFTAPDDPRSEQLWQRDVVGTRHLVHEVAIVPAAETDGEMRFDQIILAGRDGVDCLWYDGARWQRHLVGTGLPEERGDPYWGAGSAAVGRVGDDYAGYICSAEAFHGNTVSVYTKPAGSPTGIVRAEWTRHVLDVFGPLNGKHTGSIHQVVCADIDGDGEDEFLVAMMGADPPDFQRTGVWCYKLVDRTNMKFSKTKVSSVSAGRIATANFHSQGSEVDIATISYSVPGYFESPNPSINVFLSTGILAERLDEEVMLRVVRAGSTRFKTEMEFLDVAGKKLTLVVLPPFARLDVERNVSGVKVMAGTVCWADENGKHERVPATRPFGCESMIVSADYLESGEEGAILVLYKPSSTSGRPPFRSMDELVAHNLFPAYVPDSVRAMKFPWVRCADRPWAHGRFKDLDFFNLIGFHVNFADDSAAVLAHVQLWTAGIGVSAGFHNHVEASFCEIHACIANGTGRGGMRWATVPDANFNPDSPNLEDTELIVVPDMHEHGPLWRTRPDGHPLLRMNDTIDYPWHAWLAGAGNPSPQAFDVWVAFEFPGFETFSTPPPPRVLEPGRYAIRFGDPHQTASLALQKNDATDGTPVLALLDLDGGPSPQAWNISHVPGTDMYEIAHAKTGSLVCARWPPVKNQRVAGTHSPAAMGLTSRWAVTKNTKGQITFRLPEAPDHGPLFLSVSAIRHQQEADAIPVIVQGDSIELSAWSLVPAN
Nature of the assay: Conversion of AF or glucosone by PD, monitored at 226nm. In kind it is biochemical, Phanerochaete chrysosporium. To be noted: for OD226nm: 22°C, 5.5 hours. Here is the method: The reaction system consisted of AF or glucosone 1-15µl, 25µl sodium phosphate buffer (6.5. 0.1M), water, 1.4µl PD to a final volume of 200µl. The reaction was performed at 22°C for 5.5 hours. The formation of microthecin from AF and cortalcerone from glucosone were monitorered at 226nm.

Where [4] appears, read: final substrate concentration 13.7 µg/ml reaction mixture.
Where [5] appears, read: final substrate concentration 27.4 µg/ml reaction mixture.
The mark [6] stands for this setting: final substrate concentration 41.1 µg/ml reaction mixture.
Setting [7] is: final substrate concentration 68.4 µg/ml reaction mixture.
The mark [8] stands for this setting: final substrate concentration 95.8 µg/ml reaction mixture.
Where [9] appears, read: final substrate concentration 137 µg/ml reaction mixture.
Where [10] appears, read: final substrate concentration 205 µg/ml reaction mixture.

In the case of `O=C1C=CCOC1(O)CO` (stereo not drawn) [microthecin], the MIC with Aphanomyces cochlioides [1] turned out to be 1200 µg/mL (≈ 8.33 mM); in the assay with Cercospora beticola it was 2400 µg/mL (≈ 16.7 mM); in the assay on Pythium ultimum it was 480 µg/mL (≈ 3.33 mM); in the assay on Rhizoctonia solani, 240 µg/mL (≈ 1.67 mM). In the assay with Aphanomyces cochlioides [2], the “growth of Aphanomyces” value is given as “able to reduce the growth”. Moreover, the “effect on the growth” value in the assay on B. Pumilus DS96.734 and in the assay on B. megaterium DS98.124 was “no effect” throughout. The “effect on Cercospora” value with Cercospora was “no effect”. Also, the effect on growth entry in the assay on P. fluorescens DS96.578 and in the assay with P. mendocina DS98.124 was “slightly affected” throughout. Moreover, in the assay with sugar beet seeds (inclusion in the pellet), the “speed of laboratory germination (4d)” value is on record as “decreases the speed of laboratory germination”. Further, the final germination entry with Aphanomyces is reported as “high final germination”. The speed of germination result with Aphanomyces is “comparable with pellets only containing Thiram”.
As for `Cc1cc(O)no1` [Hymexazol, reference compound], in the assay with sugar beet seeds, the “4d>15mm germination” value was “low”. Further, the speed of germination result in the assay on Aphanomyces is “relatively slow”.
In the case of `O=C1CO[C@H](CO)[C@@H](O)[C@@H]1O` [AF, 1,5-anhydro-D-fructose], the OD226nm in assay [3] (setting [4]) came out at 0.308; in assay [3] (setting [5]) it was 0.534; in assay [3] (setting [6]) it was 0.76; in assay [3] (setting [7]), 1.246; in [3] (setting [8]) it was 1.764; in [3] (setting [9]), 2.43. Also, the OD226nm in assay [3] (setting [10]) is recorded as 2.943. In addition, the “Vmax higher with AF than with glucosone” value in assay [3] (ratio AF vs glucosone as PD substrate) is reported as “around 4.7 times”.
For `O=CC(=O)[C@@H](O)[C@H](O)[C@H](O)CO` [Glucosone, D-arabino-hexos-2-ulose], the OD226nm in assay [3] (setting [4]) was 0.069; in assay [3] (setting [5]) it was 0.104; in assay [3] (setting [6]) it was 0.141; in assay [3] (setting [7]), 0.238; in assay [3] (setting [8]) it was 0.323; in [3] (setting [9]), 0.484. Moreover, the OD226nm in assay [3] (setting [10]) amounted to 0.634.
